Patent US20150105252A1, “SUBSTITUTED PYRAZOLES AS HERBICIDES” (E I DU PONT DE NEMOURS AND COMPANY, priority 2013, published 2015)

Experiments:
soybean = test: Test C postemergence; assay type: in vivo, Glycine max; settings: for Soybean plant response rating / Plant response rating, Soybean: postemergence; for Soybean plant response rating: 62 g ai/ha, scale 0 to 100
How it was run: (§1)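 Herbicidal effect is expressed as percent visual control (0–100) judged against untreated plants 13 to 15 days after treatment in the greenhouse. Preemergence pots contained seeds in a soil–sand blend; postemergence plants, 2–18 cm tall, grew in peat-based planting medium.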

sedge, umbrella = test: Test B flood; assay type: in vivo, Cyperus difformis; settings: 250 g ai/ha, visual rating on 0 to 100 scale (0 no effect, 100 complete control), 13 to 15 days
How it was run: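 Plants were grown to the 2-leaf stage, then pots were flooded to 3 cm above the soil and compounds were applied directly into the paddy water. Water depth was held for the whole test; after 13 to 15 days in a greenhouse, injury was visually rated against untreated controls (0 = no effect, 100 = complete control).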

crabgrass, large = test: Test A postemergence; assay type: in vivo, Digitaria sanguinalis
How it was run: (§2)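 Scoring was visual, on a scale where 100 means complete control and 0 means no effect, comparing treated with untreated plants around 10 days post-application. Compounds in surfactant-containing non-phytotoxic solvent were sprayed onto soil preemergence or onto one- to two-leaf seedlings (2–10 cm) postemergence.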

pigweed [1] = test: Test C postemergence; assay type: in vivo, Amaranthus retroflexus; settings: for Pigweed plant response rating: scale 0 to 100
How it was run: as §1

pigweed [2] = test: Test A postemergence; assay type: in vivo, Amaranthus retroflexus
How it was run: as §2

oat, wild = test: Test C postemergence; assay type: in vivo, Avena fatua; settings: for Oat, Wild plant response rating: scale 0 to 100
How it was run: as §1

morningglory = test: Test A preemergence; assay type: in vivo, Ipomoea spp.
How it was run: as §2

lambsquarters = test: Test C postemergence; assay type: in vivo, Chenopodium album; settings: for Lambsquarters plant response rating: scale 0 to 100
How it was run: as §1

corn = test: Test A preemergence; assay type: in vivo, Zea mays
How it was run: as §2

wheat = test: Test C preemergence; assay type: in vivo, Triticum aestivum; settings: for Plant response rating (scale of 0 to 100), Wheat: Preemergence, 250 g ai/ha
How it was run: as §1

ragweed = test: Test C preemergence; assay type: in vivo, Ambrosia elation; settings: for Plant response rating (scale of 0 to 100), Ragweed: Preemergence, 250 g ai/ha
How it was run: as §1

ryegrass, Italian [3] = test: Test C postemergence; assay type: in vivo, Lolium multiflorum; settings: for Ryegrass, Italian plant response rating / Plant response rating, Ryegrass, Italian: postemergence; for Ryegrass, Italian plant response rating: 62 g ai/ha, scale 0 to 100
How it was run: as §1

ryegrass, Italian [4] = test: Test C preemergence; assay type: in vivo, Lolium multiflorum; settings: for Plant response rating (scale of 0 to 100), Ryegrass, Italian: Preemergence, 250 g ai/ha
How it was run: as §1

[5] = 250 g ai/ha, scale 0 to 100 (0 no effect, 100 complete control)
[6] = 125 g ai/ha, scale 0 to 100, 0 no effect, 100 complete control
[7] = Postemergence, 1000 g ai/ha, visual rating after approx. 10 days, 0 to 100 scale (0 no effect, 100 complete control)
[8] = postemergence, 250 g ai/ha, scale 0 to 100 (0 no effect, 100 complete control)
[9] = postemergence, 125 g ai/ha, scale 0 to 100, 0 no effect, 100 complete control
[10] = Preemergence, 1000 g ai/ha, 0 to 100 scale, 0 no effect, 100 complete control
[11] = preemergence, 31 g ai/ha, scale 0 to 100 (0 no effect, 100 complete control), 13 to 15 days
[12] = preemergence, 62 g ai/ha, 13 to 15 days, scale 0 to 100, 0 = no effect, 100 = complete control
[13] = preemergence, 125 g ai/ha, scale 0 to 100, 0 is no effect, 100 is complete control
[14] = Postemergence, 31 g ai/ha, visually evaluated after 13 to 15 days
[15] = Postemergence, 500 g ai/ha, visual rating after approx. 10 days, 0 to 100 scale (0 no effect, 100 complete control)
[16] = postemergence, 125 g ai/ha, about 10 days, visual rating on 0 to 100 scale (0 no effect, 100 complete control)
[17] = preemergence, 125 g ai/ha, visual injury, 0 to 100 scale, approx. 10 days
[18] = preemergence, 500 g ai/ha, visual injury after approx. 10 days, 0 to 100 scale (0 no effect, 100 complete control)
[19] = preemergence, 31 g ai/ha, visual rating, scale 0 to 100 (0 no effect, 100 complete control), 13 to 15 days
[20] = preemergence, 62 g ai/ha, scale 0 to 100 (0 no effect, 100 complete control), 13 to 15 days

## Cc1cc(C(=O)NCC(F)(F)F)nn1Cc1ccnc(C(F)(F)F)c1 [Compound 74]
soybean
  Soybean plant response rating: 80
soybean; [5]
  Plant response rating, Soybean: 85
soybean; [6]
  Plant response rating, Soybean: 85
sedge, umbrella
  Plant response rating, Sedge, Umbrella: 65
crabgrass, large; [7]
  Crabgrass, Large plant response rating: 100
Pigweed [1]; Postemergence, 31 g ai/ha
  Pigweed plant response rating: 60
Pigweed [1]; postemergence, 62 g ai/ha
  Pigweed plant response rating: 65
Pigweed [1]; [8]
  Plant response rating, Pigweed: 80
Pigweed [1]; [9]
  Plant response rating, Pigweed: 80
Pigweed [2]; [7]
  Pigweed plant response rating: 100
oat, wild; Postemergence, 31 g ai/ha
  Oat, Wild plant response rating: 0
oat, wild; postemergence, 62 g ai/ha
  Oat, Wild plant response rating: 0
oat, wild; [8]
  Plant response rating, Oat, Wild: 5
oat, wild; [9]
  Plant response rating, Oat, Wild: 5
morningglory; [10]
  Morningglory plant response rating: 100
lambsquarters; Postemergence, 31 g ai/ha
  Lambsquarters plant response rating: 20
lambsquarters; postemergence, 62 g ai/ha
  Lambsquarters plant response rating: 35
lambsquarters; [8]
  Plant response rating, Lambsquarters: 90
lambsquarters; [9]
  Plant response rating, Lambsquarters: 80
corn; [10]
  Corn plant response rating: 90
wheat
  Plant response rating (scale of 0 to 100), Wheat: 90
wheat; [11]
  Wheat plant response rating: 0
wheat; [12]
  Plant response rating, Wheat: 5
wheat; [13]
  Wheat plant response rating: 15
ragweed
  Plant response rating (scale of 0 to 100), Ragweed: 90
ragweed; [11]
  Ragweed plant response rating: 30
ragweed; [12]
  Plant response rating, Ragweed: 60
ragweed; [13]
  Ragweed plant response rating: 80
ryegrass, Italian [3]
  Ryegrass, Italian plant response rating: 0
ryegrass, Italian [3]; [5]
  Plant response rating, Ryegrass, Italian: 0
ryegrass, Italian [3]; [6]
  Plant response rating, Ryegrass, Italian: 0
ryegrass, Italian [4]
  Plant response rating (scale of 0 to 100), Ryegrass, Italian: 80
ryegrass, Italian [4]; [11]
  Ryegrass, Italian plant response rating: 5
ryegrass, Italian [4]; [12]
  Plant response rating, Ryegrass, Italian: 5
ryegrass, Italian [4]; [13]
  Ryegrass, Italian plant response rating: 50

## CCc1cc(C(=O)NCC(F)(F)F)nn1Cc1nc(C(F)(F)F)nn1C [Compound 107]
soybean; [14]
  Plant response rating (scale of 0 to 100 where 0 is no effect and 100 is complete control), Soybean: 20
soybean
  Soybean plant response rating: 50
soybean; [5]
  Plant response rating, Soybean: 90
soybean; [6]
  Plant response rating, Soybean: 50
sedge, umbrella
  Plant response rating, Sedge, Umbrella: 80
crabgrass, large; [15]
  Crabgrass, Large plant response rating: 90
crabgrass, large; [16]
  Crabgrass, Large plant response rating: 80
Pigweed [1]; [14]
  Plant response rating (scale of 0 to 100 where 0 is no effect and 100 is complete control), Pigweed: 50
Pigweed [1]; postemergence, 62 g ai/ha
  Pigweed plant response rating: 85
Pigweed [1]; [8]
  Plant response rating, Pigweed: 85
Pigweed [1]; [9]
  Plant response rating, Pigweed: 85
Pigweed [2]; [15]
  Pigweed plant response rating: 100
Pigweed [2]; [16]
  Pigweed plant response rating: 100
oat, wild; [14]
  Plant response rating (scale of 0 to 100 where 0 is no effect and 100 is complete control), Oat, Wild: 5
oat, wild; postemergence, 62 g ai/ha
  Oat, Wild plant response rating: 5
oat, wild; [8]
  Plant response rating, Oat, Wild: 40
oat, wild; [9]
  Plant response rating, Oat, Wild: 5
morningglory; [17]
  Morningglory plant response rating: 90
morningglory; [18]
  Morningglory plant response rating: 100
lambsquarters; [14]
  Plant response rating (scale of 0 to 100 where 0 is no effect and 100 is complete control), Lambsquarters: 40
lambsquarters; postemergence, 62 g ai/ha
  Lambsquarters plant response rating: 40
lambsquarters; [8]
  Plant response rating, Lambsquarters: 90
lambsquarters; [9]
  Plant response rating, Lambsquarters: 70
corn; [17]
  Corn plant response rating: 30
corn; [18]
  Corn plant response rating: 80
wheat
  Plant response rating (scale of 0 to 100), Wheat: 50
wheat; [19]
  Wheat plant response rating: 5
wheat; [20]
  Wheat plant response rating: 15
wheat; [13]
  Wheat plant response rating: 50
ragweed
  Plant response rating (scale of 0 to 100), Ragweed: 100
ragweed; [19]
  Ragweed plant response rating: 50
ragweed; [20]
  Ragweed plant response rating: 98
ragweed; [13]
  Ragweed plant response rating: 100
ryegrass, Italian [3]; [14]
  Plant response rating (scale of 0 to 100 where 0 is no effect and 100 is complete control), Ryegrass, Italian: 0
ryegrass, Italian [3]
  Ryegrass, Italian plant response rating: 5
ryegrass, Italian [3]; [5]
  Plant response rating, Ryegrass, Italian: 5
ryegrass, Italian [3]; [6]
  Plant response rating, Ryegrass, Italian: 5
ryegrass, Italian [4]
  Plant response rating (scale of 0 to 100), Ryegrass, Italian: 100
ryegrass, Italian [4]; [19]
  Ryegrass, Italian plant response rating: 10
ryegrass, Italian [4]; [20]
  Ryegrass, Italian plant response rating: 60
ryegrass, Italian [4]; [13]
  Ryegrass, Italian plant response rating: 60
